According to patent US11613531B2, “Inhibitors of RHO associated coiled-coil containing protein kinase” (Kadmon Corporation, LLC, priority 2017, dated 2023):
Where two headings read alike, the source gives them in different places.

Assays:
[1] = system: ppMlc (T18/S19) levels in A7R5 cells; assay: A7R5 in-cell ELISA (pMLC); type: cell-based, Rat; conditions: Rattus norvegicus, A7R5, A7R5 cells; for inhibition at 1 µM: 1 μM compound; for inhibition at 1 µM / inhibition at 10 µM: read-out: pMLC % inh A7R5 @ [conc]; for inhibition at 10 µM: 10 μM compound; for IC50: ppMlc (T18/S19)
Method in brief: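 Cellular IC50 came from a nonlinear regression fit of ppMlc (T18/S19) signal, read by colorimetric in-cell ELISA on fixed cells. Rat A7R5 aortic smooth muscle cells had been exposed for 90 min to compounds in 9-point 2-fold serial dilution, 24 h after seeding.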

[2] = target: Recombinant ROCK2 (amino acids 1-552) (Homo sapiens (Human), UniProt O75116); assay: Z′-Lyte kinase assay, ROCK2; type: biochemical; conditions: for inhibition at 1 µM: 1 μM compound; for inhibition at 1 µM / inhibition at 0.5 µM: read-out: ROCK2 % inh. @ [conc]; for inhibition at 0.5 µM: 0.5 μM compound
Procedure: Determination of Compound's ROCK Inhibitory Activity In Vitro (Z'Lyte Assay).
Recombinant ROCK1 (amino acids 1-535) and ROCK2 (amino acids 1-552) proteins were purchased from ThermoFisher Scientific. Compound's activities were measured by Z′-lyte kinase kit (ThermoFisher Scientific) and IC50 was calculated
In vitro activities for the compounds were measured with Z′-lyte kinase kit (ThermoFisher Scientific). The percent inhibition rate was calculated by normalizing the kinase activity value obtained with 1 μM compound treatment against DMSO control value and then applied to the formula, [1-(compound/DMSO)]×100%. IC50s were calculated using the nonlinear regression curve fit function of the GraphPad Prism software with kinase activities data measured with 9 points 2-fold serial dilution of compounds treatment. In cell pMLC IC50s were calculated with data obtained from A7R5 cell experiments. A7R5 cells were treated with 9 points 2-fold serial dilution of compounds and ppMlc (T18/S19) levels were determined to calculate cellular IC50 values of the compounds using the nonlinear regression curve fit function of the GraphPad Prism software. NIH3T3 cells stably expressing ACTA2-promoter-driven-luciferase were applied to measure ROCK compounds functional IC50s in cells. Cells were plated in 96 well plates to confluence and treated with 9 points serial dilution of compounds in combination with TGFβ1 for 24 hr. Luciferase activities were measured and compound's IC50s were calculated using the nonlinear regression curve fit function of the GraphPad Prism software.

[3] = 9 points 2-fold serial dilution

Chain of Recombinant ROCK2 (amino acids 1-552) (O75116 1-552): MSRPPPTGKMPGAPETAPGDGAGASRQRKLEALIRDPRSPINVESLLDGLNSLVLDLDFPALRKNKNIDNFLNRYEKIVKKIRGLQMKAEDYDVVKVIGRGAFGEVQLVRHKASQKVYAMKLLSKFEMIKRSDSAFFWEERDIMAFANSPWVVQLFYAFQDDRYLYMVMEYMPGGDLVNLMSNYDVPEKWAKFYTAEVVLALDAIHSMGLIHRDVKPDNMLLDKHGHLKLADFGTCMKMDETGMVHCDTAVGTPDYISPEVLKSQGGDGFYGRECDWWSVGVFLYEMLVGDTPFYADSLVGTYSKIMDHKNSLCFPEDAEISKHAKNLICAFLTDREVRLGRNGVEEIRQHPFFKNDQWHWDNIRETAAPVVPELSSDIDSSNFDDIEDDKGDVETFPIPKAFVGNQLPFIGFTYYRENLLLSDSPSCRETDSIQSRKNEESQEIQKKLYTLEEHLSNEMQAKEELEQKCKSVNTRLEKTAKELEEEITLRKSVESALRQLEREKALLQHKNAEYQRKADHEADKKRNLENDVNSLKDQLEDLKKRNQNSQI

## c1cc(Nc2ccc3[nH]ncc3c2)nc(N2CCN3CCNCC3C2)n1 (stereo not shown) [Example 84, N-(2-(octahydro-2H-pyrazino[1,2-a]pyrazin-2-yl)pyrimidin-4-yl)-1H-indazol-5-amine]
[1]
  inhibition at 1 µM: 0.7%
[2]
  inhibition at 1 µM: 22.2%

## Cc1cc(Nc2ccc(-c3cn[nH]c3)cc2)nc(N2CCCNCC2)n1 [Example 265, N-(4-(1H-pyrazol-4-yl)phenyl)-2-(1,4-diazepan-1-yl)-6-methylpyrimidin-4-amine]
[1]
  inhibition at 10 µM: 80%
  IC50: 1370 nM
[2]
  inhibition at 1 µM: 71.2%

## c1cc2nc(N3CCCNCC3)nc(Nc3ccc(-c4cn[nH]c4)cc3)c2s1 [Example 264, N-(4-(1H-pyrazol-4-yl)phenyl)-2-(1,4-diazepan-1-yl)thieno[3,2-d]pyrimidin-4-amine]
[1]
  inhibition at 10 µM: 60.2%
  IC50: 514 nM
[2]
  inhibition at 1 µM: 92.8%
[2]; [3]
  IC50: 30 nM

## c1cc(Nc2ccc3[nH]ncc3c2)nc(N2CCC3CNCC3CC2)n1 (stereo not shown) [Example 85, N-(2-(octahydropyrrolo[3,4-d]azepin-6(1H)-yl)pyrimidin-4-yl)-1H-indazol-5-amine]
[1]
  inhibition at 1 µM: 17.3%
[2]
  inhibition at 1 µM: 98%

## Cc1nc(N2CCNCC(C)C2)nc(Nc2ccc3[nH]ncc3c2)c1C (stereo not shown) [Example 28, N-(5,6-dimethyl-2-(6-methyl-1,4-diazepan-1-yl)pyrimidin-4-yl)-1H-indazol-5-amine]
[1]
  inhibition at 1 µM: 11.8%
[2]
  inhibition at 1 µM: 45%

## CCC1CN(c2ncc(F)c(Nc3ccc4[nH]ncc4c3)n2)CCN1 (stereo not shown) [Example 149, N-(2-(3-ethylpiperazin-1-yl)-5-fluoropyrimidin-4-yl)-1H-indazol-5-amine]
[1]
  inhibition at 10 µM: 49.4%
[2]
  inhibition at 1 µM: 71.4%

## Cc1cc(Nc2ccc3[nH]ncc3c2)nc(N2CCCNC(C(C)C)C2)n1 (stereo not shown) [Example 110, N-(2-(3-isopropyl-1,4-diazepan-1-yl)-6-methylpyrimidin-4-yl)-1H-indazol-5-amine]
[1]
  inhibition at 10 µM: 50.9%
  IC50: 1390 nM
[2]
  inhibition at 1 µM: 67.5%

## Clc1cnc(N2CCCNCC2)nc1Nc1ccc2[nH]ncc2c1 [Example 4, N-(5-chloro-2-(1,4-diazepan-1-yl)pyrimidin-4-yl)-1H-indazol-5-amine]
[1]
  inhibition at 10 µM: 95.3%
  IC50: 312 nM
[2]; [3]
  IC50: 139 nM

## Fc1cnc(N2CC(C3CCCNC3)c3ccccc32)nc1Nc1ccc2[nH]ncc2c1 (stereo not shown) [Example 177, N-(5-fluoro-2-(3-(piperidin-3-yl)indolin-1-yl)pyrimidin-4-yl)-1H-indazol-5-amine]
[1]
  inhibition at 1 µM: 10.2%
[2]
  inhibition at 1 µM: 9.5%

## CCC1CN(c2ncc(OC)c(Nc3ccc4[nH]ncc4c3)n2)CCN1 (stereo not shown) [Example 49, N-(2-(3-ethylpiperazin-1-yl)-5-methoxypyrimidin-4-yl)-1H-indazol-5-amine]
[1]
  inhibition at 10 µM: 46.3%
[2]
  inhibition at 1 µM: 50.6%

## Cc1cc(Nc2ccc3[nH]ncc3c2)nc(N2CCC3NCCC3C2)n1 (stereo not shown) [Example 131, N-(6-methyl-2-(octahydro-5H-pyrrolo[3,2-c]pyridin-5-yl)pyrimidin-4-yl)-1H-indazol-5-amine]
[1]
  inhibition at 1 µM: 12.7%
[2]
  inhibition at 1 µM: 74.1%

## c1ccc2c(c1)N(c1nccc(Nc3ccc4[nH]ncc4c3)n1)CC21CCNCC1 [Example 87, N-(2-(spiro[indoline-3,4′-piperidin]-1-yl)pyrimidin-4-yl)-1H-indazol-5-amine]
[1]
  inhibition at 1 µM: 5.8%
[2]
  inhibition at 1 µM: 7.6%

## CCC1CCN(c2ncc(OC)c(Nc3ccc4[nH]ncc4c3)n2)CCN1 (stereo not shown) [Example 54, N-(2-(5-ethyl-1,4-diazepan-1-yl)-5-methoxypyrimidin-4-yl)-1H-indazol-5-amine]
[1]
  inhibition at 10 µM: 50.1%
  IC50: 1700 nM
[2]
  inhibition at 1 µM: 58.5%

## O=C1Cc2cc(Nc3ccnc(N4CCNCC4)n3)ccc2N1 [Example 365, 5-((2-(piperazin-1-yl)pyrimidin-4-yl)amino)indolin-2-one]
[1]
  inhibition at 10 µM: 5.72%
[2]
  IC50: > 10000 nM

## c1cc(-c2ccc(Nc3nc(N4C5CNCC4C5)nc4c3CNC4)cc2)ccn1 [Example 292, 2-(3,6-diazabicyclo[3.1.1]heptan-6-yl)-N-(4-(pyridin-4-yl)phenyl)-6,7-dihydro-5H-pyrrolo[3,4-d]pyrimidin-4-amine]
[2]
  inhibition at 0.5 µM: 10%

## Cc1cc2[nH]ncc2cc1Nc1nc(N2C3CCC2CNC3)ncc1Cl [Example 318, N-(2-(3,8-diazabicyclo[3.2.1]octan-8-yl)-5-chloropyrimidin-4-yl)-6-methyl-1H-indazol-5-amine]
[2]
  inhibition at 0.5 µM: 50%

## Clc1cnc(N2CC3CNCC(C2)O3)nc1Nc1ccc2[nH]ncc2c1 [Example 325, N-(2-((1,5)-9-oxa-3,7-diazabicyclo[3.3.1]nonan-3-yl)-5-chloropyrimidin-4-yl)-1H-indazol-5-amine]
[2]
  inhibition at 0.5 µM: 25%

## c1cc(Nc2ccc3[nH]ncc3c2)nc(N2CCOCC2)n1 [Example 33, N-(2-morpholinopyrimidin-4-yl)-1H-indazol-5-amine]
[2]
  IC50: > 10000 nM

## CN(C)C1CC2CCC(C1)N2c1nccc(Nc2ccc3[nH]ncc3c2)n1 (stereo not shown) [Example 337, N-(2-(3-(dimethylamino)-8-azabicyclo[3.2.1]octan-8-yl)pyrimidin-4-yl)-1H-indazol-5-amine]
[2]
  IC50: > 1000 nM

## Cc1c(Nc2nc(N3C4CNCC3C4)ncc2Cl)ccc2[nH]ncc12 [Example 293, N-(2-(3,6-diazabicyclo[3.1.1]heptan-6-yl)-5-chloropyrimidin-4-yl)-4-methyl-1H-indazol-5-amine]
[2]
  inhibition at 0.5 µM: 1%

## c1cc(-c2ccc(Nc3nc(N4C5CNCC4C5)nc4c3COCC4)cc2)ccn1 [Example 311, 2-(3,6-diazabicyclo[3.1.1]heptan-6-yl)-N-(4-(pyridin-4-yl)phenyl)-7,8-dihydro-5H-pyrano[4,3-d]pyrimidin-4-amine]
[2]
  IC50: > 1000 nM

## Cc1c(Nc2nc(N3C4CCC3CNC4)ncc2Cl)ccc2[nH]ncc12 [Example 294, N-(2-(3,8-diazabicyclo[3.2.1]octan-8-yl)-5-chloropyrimidin-4-yl)-4-methyl-1H-indazol-5-amine]
[2]
  inhibition at 0.5 µM: 0%

## OC1CC2CCC(C1)N2c1nccc(Nc2ccc3[nH]ncc3c2)n1 (stereo not shown) [Example 223, 8-(4-((1H-indazol-5-yl)amino)pyrimidin-2-yl)-8-azabicyclo[3.2.1]octan-3-ol]
[2]
  IC50: 15.8 nM

## c1cc(-c2ccc(Nc3nc(N4C5CNCC4C5)nc4c3COC4)cc2)ccn1 [Example 312, 2-(3,6-diazabicyclo[3.1.1]heptan-6-yl)-N-(4-(pyridin-4-yl)phenyl)-5,7-dihydrofuro[3,4-d]pyrimidin-4-amine]
[2]
  IC50: > 1000 nM

## Fc1cnc(N2CC(C3CCNCC3)c3ccccc32)nc1Nc1ccc2[nH]ncc2c1 (stereo not shown) [Example 175, N-(5-fluoro-2-(3-(piperidin-4-yl)indolin-1-yl)pyrimidin-4-yl)-1H-indazol-5-amine]
[2]
  inhibition at 1 µM: 10.5%

## c1ccc2c(Nc3ccc4[nH]ncc4c3)nc(N3C4CCC3CNC4)nc2c1 [Example 330, 2-(3,8-diazabicyclo[3.2.1]octan-8-yl)-N-(1H-indazol-5-yl)quinazolin-4-amine]
[2]
  IC50: 11 nM

## CN(C)C1CC2CC1CN2c1ncc(F)c(Nc2ccc3[nH]ncc3c2)n1 (stereo not shown) [Example 335, N-(2-(5-(dimethylamino)-2-azabicyclo[2.2.1]heptan-2-yl)-5-fluoropyrimidin-4-yl)-1H-indazol-5-amine]
[2]
  IC50: > 1000 nM

## c1ccc(C2CN(c3nccc(Nc4ccc5[nH]ncc5c4)n3)CCN2)cc1 (stereo not shown) [Example 224, N-(2-(3-phenylpiperazin-1-yl)pyrimidin-4-yl)-1H-indazol-5-amine]
[1]
  inhibition at 10 µM: 48%
  IC50: 3350 nM
